≈ marks a conversion by molar mass, not a printed value.
Key:
Assay in all cases: MIC, broth micro dilution assay (NCCLS)
Format in all cases: cell-based
[1] = tested on: Staphylococcus aureus A15090; details: Mueller-Hinton medium, 35° C., 18 hours
Procedure, shortened: (§1)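 Broth microdilution in Mueller-Hinton medium, with a final inoculum of about 5×10^5 cfu/well. Plates incubated at 35 °C for 18 hours in ambient air. MIC = lowest drug concentration preventing visible growth.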

[2] = tested on: Enterococcus faecalis A20688; details: Mueller-Hinton medium, 35° C., 18 hours
Procedure, shortened: as §1

[3] = tested on: Streptococcus pneumoniae A28272; details: 50% Mueller-Hinton medium and 50% Todd Hewitt medium, 35° C., 18 hours

| SMILES | MIC (μg/mL) Staphylococcus aureus A15090 [1] [µg/mL] | MIC (μg/mL) Enterococcus faecalis A20688 [2] [µg/mL] | MIC (μg/mL) Streptococcus pneumoniae A28272 [3] [µg/mL] |
| --- | --- | --- | --- |
| C=C(NC(=O)c1csc(-c2nc3c(cc2OCCCS(=O)(=O)[O-])-c2nc(cs2)C(=O)NC(C(C)O)C(=O)NC(=C(C)OC)c2nc(cs2)C(=O)NC2c4nc(cs4)C(=O)NC(COC(=O)c4c5c6c(cccc6n4OCCCS(=O)(=O)[O-])COC(=O)C(OC4CC(C)(O)C(N(C)C)C(C)O4)C2OC5)c2nc-3cs2)n1)C(N)=O.[Na+].[Na+] (stereo not drawn) [Example 67] | >128 | 128 | 0.5 |
| C=C(NC(=O)c1csc(-c2nc3c(cc2O)-c2nc(cs2)C(=O)NC(C(C)O)C(=O)NC(=C(C)OC)c2nc(cs2)C(=O)NC2c4nc(cs4)C(=O)NC(COC(=O)c4c5c6c(cccc6n4OCc4ccc(C(=O)O)cc4)COC(=O)C(OC4CC(C)(O)C(N(C)C)C(C)O4)C2OC5)c2nc-3cs2)n1)C(N)=O (stereo not drawn) [Example 11] | 16 (≈ 10.2 µM) | >128 | 0.06 (≈ 0.0382 µM) |
| C=C(NC(=O)c1csc(-c2nc3c(cc2OCc2ccccc2)-c2nc(cs2)C(=O)NC(C(C)O)C(=O)NC(=C(C)OC)c2nc(cs2)C(=O)NC2c4nc(cs4)C(=O)NC(COC(=O)c4c5c6c(cccc6n4OCOCC[Si](C)(C)C)COC(=O)C(OC4CC(C)(O)C(N(C)C)C(C)O4)C2OC5)c2nc-3cs2)n1)C(N)=O (stereo not drawn) [Example 79] | 1.0 (≈ 0.603 µM) | 1.0 (≈ 0.603 µM) | 0.015 (≈ 0.00905 µM) |
| C=C(NC(=O)c1csc(-c2nc3c(cc2O)-c2nc(cs2)C(=O)NC(C(C)O)C(=O)NC(=C(C)OC)c2nc(cs2)C(=O)NC2c4nc(cs4)C(=O)NC(COC(=O)c4c5c6c(cccc6n4OCCCNS(=O)(=O)c4cn(C)cn4)COC(=O)C(OC4CC(C)(O)C(N(C)C)C(C)O4)C2OC5)c2nc-3cs2)n1)C(N)=O (stereo not drawn) [Example 47] | 0.06 (≈ 0.0366 µM) | 0.25 (≈ 0.153 µM) | 0.015 (≈ 0.00915 µM) |
| C=C(NC(=O)c1csc(-c2nc3c(cc2O)-c2nc(cs2)C(=O)NC(C(C)O)C(=O)NC(=C(C)OC)c2nc(cs2)C(=O)NC2c4nc(cs4)C(=O)NC(COC(=O)c4c5c6c(cccc6n4OCCC[N+](C)(C)C)COC(=O)C(OC4CC(C)(O)C(N(C)C)C(C)O4)C2OC5)c2nc-3cs2)n1)C(N)=O (stereo not drawn) [Example 14] | >128 | 2.0 | 0.5 |
| C=C(NC(=O)c1csc(-c2nc3c(cc2O)-c2nc(cs2)C(=O)NC(C(C)O)C(=O)NC(=C(C)OC)c2nc(cs2)C(=O)NC2c4nc(cs4)C(=O)NC(COC(=O)c4c5c6c(cccc6n4OCCCl)COC(=O)C(OC4CC(C)(O)C(N(C)C)C(C)O4)C2OC5)c2nc-3cs2)n1)C(N)=O.Cl (stereo not drawn) [Example 13] | 0.015 | 0.03 | 0.003 |
| C=C(NC(=O)c1csc(-c2nc3c(cc2OCC(N)=O)-c2nc(cs2)C(=O)NC(C(C)O)C(=O)NC(=C(C)OC)c2nc(cs2)C(=O)NC2c4nc(cs4)C(=O)NC(COC(=O)c4c5c6c(cccc6n4OCOCC[Si](C)(C)C)COC(=O)C(OC4CC(C)(O)C(N(C)C)C(C)O4)C2OC5)c2nc-3cs2)n1)C(N)=O (stereo not drawn) [Example 78] | 64 (≈ 39.4 µM) | 16 (≈ 9.85 µM) | 0.06 (≈ 0.0369 µM) |
| C=C(NC(=O)c1csc(-c2nc3c(cc2OCC(=O)OCCO)-c2nc(cs2)C(=O)NC(C(C)O)C(=O)NC(=C(C)OC)c2nc(cs2)C(=O)NC2c4nc(cs4)C(=O)NC(COC(=O)c4c5c6c(cccc6n4OCC(=O)OCCO)COC(=O)C(OC4CC(C)(O)C(N(C)C)C(C)O4)C2OC5)c2nc-3cs2)n1)C(N)=O (stereo not drawn) [Example 72] | 4.0 (≈ 2.44 µM) | 4.0 (≈ 2.44 µM) | 0.06 (≈ 0.0365 µM) |
| C=C(NC(=O)c1csc(-c2nc3c(cc2OCC(=O)NCC#N)-c2nc(cs2)C(=O)NC(C(C)O)C(=O)NC(=C(C)OC)c2nc(cs2)C(=O)NC2c4nc(cs4)C(=O)NC(COC(=O)c4c5c6c(cccc6n4OCC(=O)NCC#N)COC(=O)C(OC4CC(C)(O)C(N(C)C)C(C)O4)C2OC5)c2nc-3cs2)n1)C(N)=O (stereo not drawn) [Example 70] | 4.0 (≈ 2.45 µM) | 0.5 (≈ 0.307 µM) | 0.06 (≈ 0.0368 µM) |
| C=C(NC(=O)c1csc(-c2nc3c(cc2O)-c2nc(cs2)C(=O)NC(C(C)O)C(=O)NC(=C(C)OC)c2nc(cs2)C(=O)NC2c4nc(cs4)C(=O)NC(COC(=O)c4c5c6c(cccc6n4OCCCS(=O)(=O)[O-])COC(=O)C(OC4CC(C)(O)C(N(C)C)C(C)O4)C2OC5)c2nc-3cs2)n1)C(N)=O.[Na+] (stereo not drawn) [Example 7] | 0.125 | 0.125 | 0.007 |
